A compilation of properties of binary mixtures (doi:10.1016/j.molliq.2018.08.031)

Assay: xn = mol fraction of the nth substance listed
Details: 100 kPa

COCCOCCOC + CCCC[n+]1ccn(C)c1.F[P-](F)(F)(F)(F)F
Details | viscosity [mPa·s]
283.15 K, x2 = 0.0571 | 2.381
283.15 K, x2 = 0.1013 | 3.238
283.15 K, x2 = 0.2923 | 11.69
283.15 K, x2 = 0.39 | 19.81
283.15 K, x2 = 0.492 | 37.5
283.15 K, x2 = 0.6827 | 114.6
283.15 K, x2 = 0.9711 | 618
293.15 K, x2 = 0.057 | 1.99
293.15 K, x2 = 0.1982 | 4.59
293.15 K, x2 = 0.2963 | 7.91
293.15 K, x2 = 0.3913 | 14.79
293.15 K, x2 = 0.5865 | 39.52
293.15 K, x2 = 0.6814 | 66.5
293.15 K, x2 = 0.7968 | 124.3
293.15 K, x2 = 0.892 | 209.7
303.15 K, x2 = 0.0995 | 1.623
303.15 K, x2 = 0.1973 | 2.826
303.15 K, x2 = 0.2994 | 5.146
303.15 K, x2 = 0.4896 | 14.66
303.15 K, x2 = 0.5893 | 24.8
303.15 K, x2 = 0.6884 | 40.83
303.15 K, x2 = 0.8923 | 113.3
303.15 K, x2 = 0.9596 | 158.7
313.15 K, x2 = 0.057 | 0.953
313.15 K, x2 = 0.0943 | 0.744
313.15 K, x2 = 0.1995 | 0.789
313.15 K, x2 = 0.2856 | 1.631
313.15 K, x2 = 0.4877 | 7.46
313.15 K, x2 = 0.6781 | 21.08
313.15 K, x2 = 0.7994 | 38.25
313.15 K, x2 = 0.8941 | 61
313.15 K, x2 = 0.9553 | 83.2
